Laboratory results published in PubChem BioAssay (NCI).
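Values below derive from 48-hour exposures of cells grown in 96-well plates, with endpoints linearly interpolated between the two concentrations bracketing the appropriate inhibition level. The concentration for full growth arrest is given as TGI.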

Columns and labels:
Assay in all cases: NCI-60 cell line screen, 48 h
K-562 leukemia = tested on: K-562 leukemia
HOP-92 NSCLC = tested on: HOP-92 NSCLC
786-0 renal = tested on: 786-0 renal
ACHN renal = tested on: ACHN renal
HCT-116 colon = tested on: HCT-116 colon
CCRF-CEM leukemia = tested on: CCRF-CEM leukemia
U251 CNS = tested on: U251 CNS
NCI-H522 lung = tested on: NCI-H522 lung
SF-539 CNS = tested on: SF-539 CNS
SNB-78 CNS = tested on: SNB-78 CNS
DLD-1 colon = tested on: DLD-1 colon
KM12 colon = tested on: KM12 colon
EKVX NSCLC = tested on: EKVX NSCLC
UO-31 renal = tested on: UO-31 renal
HT29 colon = tested on: HT29 colon
KM20L2 colon = tested on: KM20L2 colon
OVCAR-8 ovarian = tested on: OVCAR-8 ovarian
SF-268 CNS = tested on: SF-268 CNS
M19-MEL melanoma = tested on: M19-MEL melanoma
MOLT-4 leukemia = tested on: MOLT-4 leukemia
SW-620 colon = tested on: SW-620 colon
OVCAR-5 ovarian = tested on: OVCAR-5 ovarian
HL-60(TB) leukemia = tested on: HL-60(TB) leukemia
OVCAR-4 ovarian = tested on: OVCAR-4 ovarian
DMS 114 small cell lung = tested on: DMS 114 small cell lung
NCI-H460 lung = tested on: NCI-H460 lung
RXF-631 renal = tested on: RXF-631 renal
SK-MEL-5 melanoma = tested on: SK-MEL-5 melanoma
SN12C renal = tested on: SN12C renal
A549 NSCLC = tested on: A549 NSCLC
COLO 205 colon = tested on: COLO 205 colon
LXFL 529 NSCLC = tested on: LXFL 529 NSCLC
MALME-3M melanoma = tested on: MALME-3M melanoma
UACC-62 melanoma = tested on: UACC-62 melanoma
HOP-62 NSCLC = tested on: HOP-62 NSCLC
NCI-H23 lung = tested on: NCI-H23 lung
OVCAR-3 ovarian = tested on: OVCAR-3 ovarian
M14 melanoma = tested on: M14 melanoma
RXF 393 renal = tested on: RXF 393 renal
SR leukemia = tested on: SR leukemia
TK-10 renal = tested on: TK-10 renal
SF-295 CNS = tested on: SF-295 CNS
IGROV1 ovarian = tested on: IGROV1 ovarian
UACC-257 melanoma = tested on: UACC-257 melanoma
SK-MEL-2 melanoma = tested on: SK-MEL-2 melanoma
HCT-15 colon = tested on: HCT-15 colon
A498 renal = tested on: A498 renal
HCC-2998 colon = tested on: HCC-2998 colon
HOP-18 NSCLC = tested on: HOP-18 NSCLC
SK-MEL-28 melanoma = tested on: SK-MEL-28 melanoma
DMS 273 small cell lung = tested on: DMS 273 small cell lung
RPMI-8226 leukemia = tested on: RPMI-8226 leukemia
NCI-H226 lung = tested on: NCI-H226 lung
LOX IMVI melanoma = tested on: LOX IMVI melanoma
CAKI-1 renal = tested on: CAKI-1 renal
SNB-19 CNS = tested on: SNB-19 CNS
SK-OV-3 ovarian = tested on: SK-OV-3 ovarian
SNB-75 CNS = tested on: SNB-75 CNS

Measured: TGI

COC(=O)/C(=N\NC(=O)c1ccccc1O)C(C#N)c1ccc(Cl)cc1 (centres undefined)
79.8 µM: RXF 393 renal
88.7 µM: HCC-2998 colon
76 µM: NCI-H23 lung
37.3 µM: UO-31 renal
> 100 µM: K-562 leukemia | HOP-92 NSCLC | 786-0 renal | ACHN renal | HCT-116 colon | CCRF-CEM leukemia | U251 CNS | SF-539 CNS | SNB-78 CNS | DLD-1 colon | KM12 colon | EKVX NSCLC | HT29 colon | KM20L2 colon | OVCAR-8 ovarian | SF-268 CNS | M19-MEL melanoma | MOLT-4 leukemia | SW-620 colon | HL-60(TB) leukemia | OVCAR-4 ovarian | DMS 114 small cell lung | NCI-H460 lung | RXF-631 renal | SK-MEL-5 melanoma | SN12C renal | A549 NSCLC | COLO 205 colon | LXFL 529 NSCLC | MALME-3M melanoma | UACC-62 melanoma | OVCAR-3 ovarian | M14 melanoma | SR leukemia | TK-10 renal | SF-295 CNS | IGROV1 ovarian | UACC-257 melanoma | SK-MEL-2 melanoma | HCT-15 colon | A498 renal | HOP-18 NSCLC | SK-MEL-28 melanoma
90.3 µM: OVCAR-5 ovarian
95.8 µM: HOP-62 NSCLC
72.3 µM: NCI-H522 lung

COc1ccc(C(=O)Cc2cc(OC)ccc2OC)cc1
60.1 µM: SNB-75 CNS
> 100 µM: K-562 leukemia | DMS 273 small cell lung | RPMI-8226 leukemia | NCI-H226 lung | ACHN renal | HCT-116 colon | CCRF-CEM leukemia | U251 CNS | NCI-H522 lung | SF-539 CNS | LOX IMVI melanoma | SNB-78 CNS | DLD-1 colon | EKVX NSCLC | UO-31 renal | HT29 colon | KM20L2 colon | OVCAR-8 ovarian | SF-268 CNS | M19-MEL melanoma | MOLT-4 leukemia | SW-620 colon | CAKI-1 renal | OVCAR-5 ovarian | HL-60(TB) leukemia | OVCAR-4 ovarian | DMS 114 small cell lung | NCI-H460 lung | RXF-631 renal | SK-MEL-5 melanoma | SN12C renal | A549 NSCLC | COLO 205 colon | LXFL 529 NSCLC | MALME-3M melanoma | UACC-62 melanoma | HOP-62 NSCLC | NCI-H23 lung | SNB-19 CNS | OVCAR-3 ovarian | M14 melanoma | RXF 393 renal | SR leukemia | TK-10 renal | SK-OV-3 ovarian | SF-295 CNS | IGROV1 ovarian | UACC-257 melanoma | SK-MEL-2 melanoma | HCT-15 colon | A498 renal | HCC-2998 colon | HOP-18 NSCLC
